{"source": "patent US20240116892A1", "about": "“HETEROCYCLIC AMIDE AND UREA COMPOUNDS AS JAK2 INHIBITORS” (Ajax Therapeutics, Inc., priority 2022, published 2024)"}
{"molecular_target": "JAK2 (JH1 domain-catalytic, Y1007F, Y1008F) kinase (Homo sapiens (Human), UniProt O60674, Y1007F/Y1008F)", "sequence (O60674 849-1124 Y1007F/Y1008F)": "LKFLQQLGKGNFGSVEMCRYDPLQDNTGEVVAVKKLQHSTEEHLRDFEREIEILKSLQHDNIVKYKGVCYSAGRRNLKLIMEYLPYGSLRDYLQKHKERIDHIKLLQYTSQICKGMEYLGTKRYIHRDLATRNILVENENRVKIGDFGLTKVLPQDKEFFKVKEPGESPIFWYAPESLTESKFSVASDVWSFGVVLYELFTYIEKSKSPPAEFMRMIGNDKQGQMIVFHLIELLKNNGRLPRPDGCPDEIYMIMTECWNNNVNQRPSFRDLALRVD", "experiment": "JAK2 JH1 Domain Binding Assay", "details": "qPCR readout", "outline": "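Competitive binding format: test compound, DNA-tagged JAK2 JH1 (Y1007F/Y1008F; HEK293-expressed NFkB fusion) and ligand-coated magnetic beads incubated 1 h at room temperature. Kinase retained on beads released with 0.5 μmol/L non-biotinylated ligand, then measured by qPCR.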", "units": {"Kd": "nM"}}
{"compound": "CN(C(=O)Nc1cc(C(F)(F)F)n([C@H]2CCOC2)n1)C1CCN(c2cnc3[nH]ncc3c2)CC1", "note": "[Example I-181, (S)-1-(1-(1H-pyrazolo[3,4-b]pyridin-5-yl)piperidin-4-yl)-1-methyl-3-(1-(tetrahydrofuran-3-yl)-5-(trifluoromethyl)-1H-pyrazol-3-yl)urea]", "Kd": "< 10"}
{"compound": "CCN1CCN(Cc2ccc(NC(=O)N(C)C3CCN(c4cnc5[nH]nc(OC)c5c4)CC3)cc2C(F)(F)F)CC1", "note": "[Example I-182, 3-(4-((4-ethylpiperazin-1-yl)methyl)-3-(trifluoromethyl)phenyl)-1-(1-(3-methoxy-1H-pyrazolo[3,4-b]pyridin-5-yl)piperidin-4-yl)-1-methylurea]", "Kd": "< 10"}
{"compound": "(S)-1-methyl-3-(1-methyl-2-oxo-5-(trifluoromethyl)-1,2-dihydropyridin-3-yl)-1-(3-(3-((tetrahydrofuran-3-yl)oxy)-1H-pyrazolo[3,4-b]pyridin-5-yl)bicyclo[1.1.1]pentan-1-yl)urea and (R)-1-methyl-3-(1-methyl-2-oxo-5-(trifluoromethyl)-1,2-dihydropyridin-3-yl)-1-(3-(3-((tetrahydrofuran-3-yl)oxy)-1H-pyrazolo[3,4-b]pyridin-5-yl)bicyclo[1.1.1]pentan-1-yl)urea [Example I-166-a]", "Kd": "50 to 1000"}
{"compound": "(S)-1-methyl-3-(1-methyl-2-oxo-5-(trifluoromethyl)-1,2-dihydropyridin-3-yl)-1-(3-(3-((tetrahydrofuran-3-yl)oxy)-1H-pyrazolo[3,4-b]pyridin-5-yl)bicyclo[1.1.1]pentan-1-yl)urea and (R)-1-methyl-3-(1-methyl-2-oxo-5-(trifluoromethyl)-1,2-dihydropyridin-3-yl)-1-(3-(3-((tetrahydrofuran-3-yl)oxy)-1H-pyrazolo[3,4-b]pyridin-5-yl)bicyclo[1.1.1]pentan-1-yl)urea [Example I-166-b]", "Kd": "≥ 5000"}
